Data: ChEMBL document CHEMBL1201862, “PubChem BioAssay data set” (2004)
Calls of active or inactive are those of the source.

Tests used:
Cytochrome P450 3A4 = Cytochrome P450 3A4 (Homo sapiens, UniProt P08684); settings: Potency;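 further: confirmatory qHTS run detecting inhibitors and substrates of CYP3A4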
[1] = target: Induced myeloid leukemia cell differentiation protein Mcl-1 (Homo sapiens, UniProt Q07820); assay type: functional
[2] = target: T1, Carboxy-terminal domain RNA polymerase II polypeptide A small phosphatase 1 (Homo sapiens, UniProt Q9GZU7); assay: inhibitors of CTDSP1, concentration-response testing, biochemical assay, absorbance-based, actives from ultra-high-throughput screening (AID 540297); assay type: functional
T1 sequence (Q9GZU7 whole entry): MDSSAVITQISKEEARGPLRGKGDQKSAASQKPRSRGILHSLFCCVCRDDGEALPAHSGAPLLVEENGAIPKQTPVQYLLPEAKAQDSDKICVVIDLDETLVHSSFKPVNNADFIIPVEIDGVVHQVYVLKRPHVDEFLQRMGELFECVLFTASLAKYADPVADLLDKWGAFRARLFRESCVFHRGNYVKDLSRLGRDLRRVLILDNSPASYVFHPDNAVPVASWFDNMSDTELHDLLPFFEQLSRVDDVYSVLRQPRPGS

[3] = inhibitors of firefly luciferase expression or activity, dose response, H4 neuroglioma cells, luminescence (AID 1990); assay type: functional, cell-based
[4] = Luminescence Cell-Based Dose Response HTS to Identify Inhibitors of 5'UTR Stem-Loop Driven Prion Protein mRNA Translation in H4 Neuroglioblastoma Cells. [Related pubchem assays: 1827 (Project Summary), 1813 (Primary HTS)]; assay type: functional
[5] = inhibitors of SNCA 5'UTR-driven reporter translation, confirmation, H4 neuroglioma cells, luminescence (AID 1988); assay type: functional, cell-based
[6] = microbe, parasite or virus in culture; assay type: functional; settings: Mycobacterium tuberculosis
[7] = Luminescence Cell-Based Dose Retest to Confirm Inhibitors of Cancer Stem Cells. [Related pubchem assays (depositor defined):AID2717, AID2721]; assay type: functional; settings: Homo sapiens
[8] = Luminescence Cell-Based Dose Confirmation HTS to Identify Activators of 5'UTR Stem-Loop Driven Alpha-Synuclein mRNA Translation in H4 Neuroglioblastoma Cells. [Related pubchem assays: 1829 (Project Summary), 1814 (Primary HTS)]; assay type: functional
[9] = Luminescence Cell-Based Dose Response HTS to Identify Activators of Luciferase Translation or Activity in H4 […] Cells. [Related pubchem assays: 1829 (Project Summary), 1814 (Primary HTS)]; assay type: functional
H4 = assay: Luminescence Cell-Based Dose Response HTS to Identify Activators of 5'UTR Stem-Loop Driven Prion Protein mRNA Translation in H4 Neuroglioblastoma Cells. [Related pubchem assays: 1829 (Project Summary), 1814 (Primary HTS)]; assay type: functional; settings: Homo sapiens
Paired box protein Pax-8 = Paired box protein Pax-8 (Homo sapiens, UniProt Q06710); assay: inhibitors of PAX8-driven TPO luciferase reporter, dose response, RMG-I cells, cherry-pick (AID 687027); assay type: functional, cell-based;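 further: luciferase reporter driven by Pax8 target thyroperoxidase promoter measured by SteadyGlo luminescence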
Sequence of Paired box protein Pax-8 (Q06710 whole entry): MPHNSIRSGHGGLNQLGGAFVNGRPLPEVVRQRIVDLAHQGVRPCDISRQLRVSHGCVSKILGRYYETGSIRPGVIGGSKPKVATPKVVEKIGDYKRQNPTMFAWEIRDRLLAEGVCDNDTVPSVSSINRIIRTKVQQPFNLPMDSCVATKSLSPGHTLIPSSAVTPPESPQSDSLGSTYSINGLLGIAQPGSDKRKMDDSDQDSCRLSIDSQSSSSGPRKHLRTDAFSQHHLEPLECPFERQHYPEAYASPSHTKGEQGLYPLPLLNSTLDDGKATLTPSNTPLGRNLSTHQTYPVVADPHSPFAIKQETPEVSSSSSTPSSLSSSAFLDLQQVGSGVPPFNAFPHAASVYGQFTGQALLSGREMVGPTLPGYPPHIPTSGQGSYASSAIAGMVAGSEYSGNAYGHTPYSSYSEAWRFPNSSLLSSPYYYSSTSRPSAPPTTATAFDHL

[10] = cytotoxicity in OVCAR8 ovarian cancer cells, dose response, PAX8 project, cell-based, plate reader, dry powder samples (AID 743197); assay type: functional; settings: OVCAR-8
[11] = inhibitors of HIV Env-driven cell fusion, dose response, cherry-pick (AID 652057); assay type: functional, cell-based
[12] = HEp-2 cell cytotoxicity, dose response, cytotoxicity control for RSV inhibitor project, HTS (AID 2410); assay type: functional; settings: human respiratory syncytial virus
[13] = target: T2, Calpain-2 catalytic subunit (Sus scrofa, UniProt P43367); assay: pig calpain II inhibitor potency, dose response, biochemical, fluorogenic peptide substrate (AID 1420); assay type: functional
T2 sequence (P43367 whole entry): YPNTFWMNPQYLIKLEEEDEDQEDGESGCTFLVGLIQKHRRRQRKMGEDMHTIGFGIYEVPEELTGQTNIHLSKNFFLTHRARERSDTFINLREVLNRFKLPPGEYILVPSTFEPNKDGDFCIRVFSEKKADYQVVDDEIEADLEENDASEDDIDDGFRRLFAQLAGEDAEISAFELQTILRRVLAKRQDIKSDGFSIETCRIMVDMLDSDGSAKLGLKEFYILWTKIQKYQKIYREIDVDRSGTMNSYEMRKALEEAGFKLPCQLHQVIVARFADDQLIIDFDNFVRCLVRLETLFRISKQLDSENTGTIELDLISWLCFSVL

[14] = ZM109 Env clade C HIV-1 fusion inhibitors, dose response, HeLa effector, CEM target cells, luciferase, cherry-pick (AID 652058); assay type: functional, cell-based
[15] = inhibitors of clade B AD8 Env fusion, dose response, cell-based, cherry-pick (AID 652062); assay type: functional;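 further: luciferase signal from cell-cell fusion driven by HIV-1 clade B AD8 Env; potency is for inhibitors of fusion seen as a drop in luminescence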
[16] = Shn3 3'UTR reporter inhibitors, dose response, cell-based, Clone20 osteoblasts, firefly luciferase, cherry-picked (AID 624132); assay type: functional;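 further: firefly luciferase luminescence from reporter carrying the Shn3 3'UTR in osteoblasts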
[17] = HepG2 cell cytotoxicity, dose response, cytotoxicity control for Shn3 inhibitor project, CellTiter-Glo, cherry-picked (AID 624134); assay type: functional, cell-based
[18] = control 3'UTR Renilla luciferase suppression, dose response, counter-screen for Shn3 inhibitor project, cell-based, Clone20-Shn3RL, cherry-picked (AID 624133); assay type: functional
[19] = tested on: Streptococcus sp. 'group A'; assay: growth inhibition of control SK(-) GAS strain, dose response, counter-screen for streptokinase expression inhibitor project, luminescence, kanamycin, BacTiterGlo, confirmation (AID 1900); assay type: functional, organism-based
Streptokinase A = target: T3, Streptokinase A (Streptococcus pyogenes serotype M1, UniProt P10520); assay: S. pyogenes streptokinase expression inhibitors, potency, dose response, plasminogen activation absorbance, OD405 (AID 1914); assay type: functional, Streptococcus pyogenes M1 GAS;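 further: secreted streptokinase activity via plasminogen activation per viability signal from cell pellet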
T3 sequence (P10520 whole entry): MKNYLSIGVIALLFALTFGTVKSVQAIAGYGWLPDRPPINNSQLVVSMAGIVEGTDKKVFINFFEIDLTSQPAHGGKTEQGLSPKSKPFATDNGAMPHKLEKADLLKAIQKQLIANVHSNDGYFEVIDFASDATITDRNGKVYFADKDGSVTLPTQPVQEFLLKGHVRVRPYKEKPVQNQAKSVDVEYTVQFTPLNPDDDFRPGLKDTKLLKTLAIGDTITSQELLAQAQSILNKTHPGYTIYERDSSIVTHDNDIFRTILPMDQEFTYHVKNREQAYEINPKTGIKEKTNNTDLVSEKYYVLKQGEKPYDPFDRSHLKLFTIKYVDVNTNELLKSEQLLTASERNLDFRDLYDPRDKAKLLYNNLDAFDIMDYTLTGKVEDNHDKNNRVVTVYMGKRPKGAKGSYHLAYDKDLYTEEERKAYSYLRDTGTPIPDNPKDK

Streptococcus = assay: Group A Streptococcus viability loss, dose response, counter-screen for streptokinase expression inhibitor project, luminescence, BacTiterGlo (AID 1915); assay type: functional, organism-based;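 further: potency for reduction of bacterial viability or growth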
[20] = target: T4, RNA-binding protein pos-1 (Caenorhabditis elegans, UniProt G5EF15); assay: inhibitors of POS-1/mex-3 RNA binding, dose response, biochemical, fluorescence polarization (AID 1964);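 further: purified POS-1 fused to maltose binding protein made in E. coli; potency of compounds blocking POS-1 binding to fluorescent RNA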
T4 sequence (G5EF15 whole entry): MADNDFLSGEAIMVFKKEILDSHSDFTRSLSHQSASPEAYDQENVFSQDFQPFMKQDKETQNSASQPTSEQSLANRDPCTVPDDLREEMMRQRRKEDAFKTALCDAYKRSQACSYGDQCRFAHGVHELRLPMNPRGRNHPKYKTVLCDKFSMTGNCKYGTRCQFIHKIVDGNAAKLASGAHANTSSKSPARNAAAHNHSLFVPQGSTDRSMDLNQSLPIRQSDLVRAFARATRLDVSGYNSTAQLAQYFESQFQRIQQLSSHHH

[21] = target: T5, Zinc finger protein mex-5 (Caenorhabditis elegans, UniProt Q9XUB2); assay: MEX-5/TCR-2 RNA interaction inhibitors, dose response, biochemical, C. elegans, fluorescence polarization (AID 1960)
T5 sequence (Q9XUB2 whole entry): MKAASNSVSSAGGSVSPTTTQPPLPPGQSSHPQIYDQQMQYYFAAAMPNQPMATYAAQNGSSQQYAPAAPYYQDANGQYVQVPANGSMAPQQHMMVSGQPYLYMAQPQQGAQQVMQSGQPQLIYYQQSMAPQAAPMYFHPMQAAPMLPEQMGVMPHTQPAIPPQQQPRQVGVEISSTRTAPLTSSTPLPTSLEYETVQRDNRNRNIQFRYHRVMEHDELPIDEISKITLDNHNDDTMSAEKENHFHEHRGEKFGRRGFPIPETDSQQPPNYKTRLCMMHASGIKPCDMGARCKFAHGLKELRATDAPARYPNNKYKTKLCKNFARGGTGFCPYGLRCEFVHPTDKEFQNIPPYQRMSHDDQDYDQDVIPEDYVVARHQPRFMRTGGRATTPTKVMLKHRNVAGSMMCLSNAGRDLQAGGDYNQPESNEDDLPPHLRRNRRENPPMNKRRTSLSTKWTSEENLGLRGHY

Sequence of Induced myeloid leukemia cell differentiation protein Mcl-1 (Q07820 whole entry, the tested form may be a part): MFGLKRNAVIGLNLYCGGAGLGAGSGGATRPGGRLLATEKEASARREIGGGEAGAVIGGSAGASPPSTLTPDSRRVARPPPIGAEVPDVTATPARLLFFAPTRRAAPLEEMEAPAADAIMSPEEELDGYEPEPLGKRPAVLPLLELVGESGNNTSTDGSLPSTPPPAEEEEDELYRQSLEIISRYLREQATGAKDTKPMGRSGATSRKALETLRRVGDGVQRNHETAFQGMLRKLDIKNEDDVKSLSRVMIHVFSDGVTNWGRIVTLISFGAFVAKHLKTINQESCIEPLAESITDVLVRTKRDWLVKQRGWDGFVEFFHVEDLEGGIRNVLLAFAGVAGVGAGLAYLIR
Sequence of Cytochrome P450 3A4 (P08684 whole entry): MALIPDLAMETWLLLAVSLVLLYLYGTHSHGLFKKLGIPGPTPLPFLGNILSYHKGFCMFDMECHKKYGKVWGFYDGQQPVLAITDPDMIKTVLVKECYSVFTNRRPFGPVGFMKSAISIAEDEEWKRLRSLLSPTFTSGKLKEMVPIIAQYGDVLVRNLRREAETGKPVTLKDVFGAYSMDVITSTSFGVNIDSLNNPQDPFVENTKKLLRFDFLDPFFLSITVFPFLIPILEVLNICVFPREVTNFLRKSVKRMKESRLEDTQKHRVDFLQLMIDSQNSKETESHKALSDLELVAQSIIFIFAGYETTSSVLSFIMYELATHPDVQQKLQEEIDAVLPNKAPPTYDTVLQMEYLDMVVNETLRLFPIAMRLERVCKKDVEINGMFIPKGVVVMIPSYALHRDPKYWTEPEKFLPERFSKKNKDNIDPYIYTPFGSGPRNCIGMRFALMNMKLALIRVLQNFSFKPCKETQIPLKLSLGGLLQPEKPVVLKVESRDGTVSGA

C=CC(C1=CC(=O)C=CC1=O)c1ccccc1 (centres undefined) [DALBERGIONE]
AC50 (Cytochrome P450 3A4): 31.6 µM (inconclusive)

O=C(N/N=C/c1ccc(-c2ccccc2C(=O)O)o1)c1cccs1
IC50 [1]: 5.27 µM (active)
IC50 [2]: 4.6 µM (active)

C=C(C)C(O)/C=C/C=C/c1ccccc1 (centres undefined)
AC50 (Cytochrome P450 3A4): 3.98 µM (inconclusive)

COc1ccc(Nc2nc(N)c([N+](=O)[O-])c(NC3CCCCC3)n2)cc1
EC50 [3]: 14.8 µM (active)
EC50 [4]: 10.7 µM (active)
EC50 [5]: 17.2 µM (active)
CC50 [6]: 32 µM (active)
AC50 [7]: 3.53 µM (active)

O=C1NC(=S)N/C1=C/c1cccc2ccccc12
EC50 [8]: 17.7 µM (active)
EC50 [9]: 8.63 µM (active)
EC50 (H4): > 120 µM (not active)

O=C1/C(=C\Nc2ccc(OC(F)(F)F)cc2)CCN1c1ncccn1
EC50 [8]: 20.4 µM (active)
EC50 [9]: 23.7 µM (active)
EC50 (H4): 14.6 µM (active)

CC1CCN(C(c2ccc(N(C)C)cc2)c2nnnn2C(C)(C)C)CC1 (centres undefined)
IC50 [1]: > 54 µM (active)

C[C@@H]1CN([C@@H](C)CO)C(=O)c2cc(NC(=O)Nc3ccc(C(F)(F)F)cc3)ccc2O[C@@H](C)CCCCO[C@@H]1CN(C)Cc1ccccc1
AC50 (Paired box protein Pax-8): 9.49 µM (active)
AC50 [10]: > 60 µM (inactive)

COc1cccc(S(=O)(=O)N(C)C[C@H]2Oc3cc(C4=CCCC4)ccc3S(=O)(=O)N([C@H](C)CO)C[C@@H]2C)c1
AC50 [11]: 34.2 µM (active)

CCOC(=O)c1c(C)[nH]c(C(=O)COC(=O)C23CC4CC(CC(Cl)(C4)C2)C3)c1C
CC50 [12]: > 50 µM (active)
IC50 [13]: 4.08 µM (not active)

C[C@H]1CN([C@@H](C)CO)C(=O)c2c(c3ccccc3n2C)-c2ccccc2CO[C@H]1CN(C)C(=O)Cc1ccccc1
AC50 [11]: < 0.26 µM (active)
AC50 [14]: < 0.26 µM (active)
AC50 [15]: < 0.26 µM (active)

Cn1nc(-c2ccc(OCC(=O)N3CCN(Cc4ccccc4)CC3)cc2)c2ccccc2c1=O
AC50 [16]: 2.1 µM (active)
AC50 [17]: 32.4 µM (active)
AC50 [18]: 4.74 µM (active)
AC50 [14]: 27.4 µM (active)
AC50 [15]: 23.5 µM (active)

CN1C(=O)/C(=C2/C(=O)Nc3ccccc32)S/C1=N\c1ccc(Cl)cc1
EC50 [8]: 12.7 µM (active)
EC50 [9]: 46.1 µM (active)
EC50 (H4): 32.3 µM (active)

C[C@H]1CN([C@@H](C)CO)C(=O)c2cc(NC(=O)Nc3ccc4c(c3)OCO4)ccc2O[C@H]1CN(C)S(=O)(=O)c1cccs1
AC50 [11]: 6.19 µM (active)
AC50 [14]: 24.7 µM (active)
AC50 [15]: 29.3 µM (active)

Cc1sc2c(c1C)CN(Cc1ccncc1)CN2C(=O)c1ccco1
EC50 [8]: > 120 µM (not active)
EC50 [9]: 11 µM (active)
EC50 (H4): > 60 µM (not active)

N=C1C=CC(=C(c2cccc(N)c2)c2cccc(N)c2)C=C1
AC50 (Cytochrome P450 3A4): 5.01 µM (active)

CC(C)CC1(C(=O)NCc2ccccn2)C=CCN1C(=O)c1ccccc1 (centres undefined)
AC50 (Cytochrome P450 3A4): 15.8 µM (inconclusive)

Cc1ccc(Oc2cnn(-c3ccccc3)c(=O)c2Br)cc1
EC50 [8]: > 120 µM (not active)
EC50 [9]: 27 µM (active)
EC50 (H4): 30.7 µM (active)

CCOc1ccccc1NC(=O)/C=C/C(N)=O
IC50 [1]: 1.1 µM (not active)

COC(=O)c1cccc(NC(=O)c2cccc(OC)c2)c1
IC50 [13]: 14.6 µM (not active)

O=C(O)CC(NC(=O)C1c2ccccc2Oc2ccccc21)c1ccc(OC2CCCC2)cc1 (centres undefined)
IC50 [13]: 6.06 µM (not active)

O=C(Nc1ccccc1C(=O)O)c1cccc(NC(=O)c2ccc(Br)o2)c1
EC50 [19]: 6.27 µM (active)
EC50 (Streptokinase A): 6.41 µM (active)
IC50 [13]: 12.1 µM (not active)
EC50 (Streptococcus): 9.37 µM (active)

COc1ccc(NC(=O)C2C(=O)N(CCO)C3(C)CC2c2ccccc2O3)cc1 (centres undefined)
EC50 [8]: 7.35 µM (active)
EC50 [9]: 14.8 µM (active)
EC50 (H4): 10.2 µM (active)

Cc1cc(C(=O)O)ccc1-n1c(C)cc(/C=C(/C#N)C(=O)Nc2ccccc2)c1C
EC50 [20]: > 300 µM (not active)
EC50 [21]: > 300 µM (not active)
IC50 [13]: 12.6 µM (not active)

CCN(CC)CCN(C(=O)c1cc2c(ccc3ccccc32)oc1=O)c1nc2cc3c(cc2s1)OCCO3
EC50 [3]: > 120 µM (not active)
EC50 [4]: > 120 µM (inconclusive)
EC50 [5]: 9.65 µM (active)

CC(=O)c1c(C(C)=O)c(C)n(C(c2ccccc2)c2ccccc2)c1C
IC50 [13]: > 50 µM (not active)

CC(=O)OC1CC2C(C)(C)C(O)C=C[C@@]2(C)C2CC[C@@]3(C)C(c4ccoc4)OC(=O)C4OC43[C@]12C (some centres undefined)
AC50 (Cytochrome P450 3A4): 12.6 µM (inconclusive)

CC(=O)OC1CCC2(C)C3=C(CCC2C1(C)C)[C@]1(C)CCC(C(C)CCC=C(C)C)[C@]1(C)CC3 (some centres undefined)
AC50 (Cytochrome P450 3A4): 31.6 µM (inconclusive)

Cc1cccc(OCCCC(=O)Nc2ccc(N(C)C)cc2)c1
IC50 [1]: < 0.4 µM (active)

COc1cccc(O)c1O [3-METHOXYCATECHOL]
AC50 (Cytochrome P450 3A4): 20 µM (inconclusive)
